Drawing on PubChem BioAssay (NCI), this text covers GI50 and TGI for 7 compounds.

Common to all, as to test: inhibition of tumour cell growth, NCI panel, 48 h
Test [1] deals with 786-0 renal.
In test [2] the test system is EKVX NSCLC.
The test system of test [3] is HCT-15 colon.
Test [4] has as its system HS 578T breast.
The subject of test [5] is KM12 colon.
Test [6] has as its system NCI-H460 lung.
Test [7] has as its system RXF 393 renal.
Test [8] concerns SK-OV-3 ovarian.
Test [9] has as its system SN12C renal.
In test [10] the test system is UACC-257 melanoma.

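Values below derive from 48-hour exposures of cells grown in 96-well plates, with endpoints linearly interpolated between the two concentrations bracketing the appropriate inhibition level. At the GI50, growth is halved. TGI marks complete inhibition of growth.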 Bounds are passed on as bounds.

Consider `Cc1cc(S(=O)(=O)NC#N)c(S/C(=N\Nc2ccc([N+](=O)[O-])cc2)c2ccc(Cl)cc2)cc1Cl`, for which the GI50 is 39.6 µM in test [1]; 20.2 µM in [2]; 11.6 µM in [3]; 17.2 µM in [4]; 24.6 µM in test [5]; 26.7 µM in test [6]. In addition, the GI50 in test [7] was 34.4 µM; in test [8], 17.9 µM; in [9] it was greater than 100 µM; in test [10] it was greater than 100 µM. For the same compound, the TGI in [1] is greater than 100 µM; in test [2] it was 70.2 µM; in test [3], 59.7 µM; in [4] it was 58 µM; in test [5], 56.9 µM; in test [6] it was greater than 100 µM. Moreover, the TGI in test [7] is greater than 100 µM; in [8], 57.6 µM; in test [9], greater than 100 µM; in test [10], greater than 100 µM.
As for `COc1ccc2cc(-c3c(-c4ccncc4)nc(-c4ccc(S(C)(=O)=O)cc4C)n3C)ccc2c1`, the GI50 was 11.4 µM in [1]; 7.45 µM in test [2]; 7.97 µM in test [3]; 5.24 µM in test [4]; 8.05 µM in test [5]; 7.77 µM in test [6]. Besides, the GI50 in [7] is 3.99 µM; in test [8] it was 6.5 µM; in test [9], 8.22 µM; in test [10] it was 7.75 µM. Further, the TGI in [1], in [2], in test [3], in [4], in test [5] and in test [6] was greater than 25 µM throughout. Moreover, the TGI is 20.7 µM in [7], 16.7 µM in test [8], greater than 25 µM in [9] and greater than 25 µM in test [10].
Consider `Fc1cc2[nH]ncc2c2c3c(c(-c4cn[nH]c4C(F)(F)F)nc12)C1CCC3C1` (stereo not given), for which the GI50 in test [1] was 1.19 µM; in test [2] it was 1.39 µM; in test [3], 1.33 µM; in [4], 0.808 µM; in test [5], 0.656 µM; in [6], 1.15 µM. For the same compound, the GI50 in [7] is 0.345 µM; in test [8], 0.729 µM; in [9], 0.96 µM; in test [10], 1.31 µM. In addition, the TGI in [1] was found to be 5.27 µM; in [2], 5.91 µM; in [3], 7.28 µM; in test [4], 2.67 µM; in test [5], 6.3 µM; in test [6] it was 5.5 µM. Moreover, the TGI in test [7] was 1.12 µM; in [8], 2.26 µM; in test [9] it was 5.18 µM; in [10] it was 4.51 µM.
Regarding `COc1cc(C(=O)Nc2cc3c(cc2Oc2cc(C)cc(C)c2)C(=O)N(C)[C@@H](CC(=O)N(C)O)C(=O)N3)c(Br)c(OC)c1OC`, the GI50 in test [1] was 0.00824 µM; in test [2] it was less than 0.00333 µM; in test [3] it was 0.144 µM; in test [4] it was less than 0.00333 µM; in test [5], less than 0.00333 µM; in test [6], less than 0.00333 µM. In addition, the GI50 in test [7], in [8], in test [9] and in [10] was less than 0.00333 µM in each case. Also, the TGI turned out to be 0.0429 µM in test [1]; 0.0201 µM in [2]; 2.04 µM in [3]; 0.00422 µM in [4]; 0.0394 µM in [5]; 0.00425 µM in test [6]. The TGI in test [7] is 0.00609 µM; in test [8] it was 0.00955 µM; in test [9] it was less than 0.00333 µM; in test [10], 0.00475 µM.
`O=C(O)C1CCCCC1C(=O)O.[NH-]C1CCC1.[NH2-].[Pt+2]` (stereo not given): the GI50 in test [1] is 15.4 µM; in test [2], 26.5 µM; in test [3] it was 17.3 µM; in test [4], 19.3 µM; in test [5], greater than 100 µM; in test [6], 22.7 µM. The GI50 in test [7] was 52.8 µM; in test [8], 48.7 µM; in test [9], 11.8 µM; in test [10], 15 µM. Moreover, the TGI was 33 µM in test [1]; 84.8 µM in test [2]; 34.5 µM in test [3]; 57 µM in test [4]; greater than 100 µM in test [5]; greater than 100 µM in test [6]. The TGI was greater than 100 µM in test [7], greater than 100 µM in test [8], 26.7 µM in test [9] and 36.6 µM in test [10].
Regarding `Nc1ccc(C(=O)CC(N)C(=O)O)cc1O` (stereo not given), the TGI in test [1], in [2], in test [3], in test [4], in test [5] and in test [6] was greater than 100 µM in each case. Further, the TGI in test [7], in test [8], in test [9] and in test [10] was greater than 100 µM in each case.
As for `COc1ccc(N2C(=O)[C@H]3CC(C)c4c([nH]c5ccccc45)[C@H]3C2=O)cc1` (stereo not given in full), the TGI in test [1] was 16.4 µM; in test [2] it was greater than 95 µM; in test [3], greater than 100 µM; in test [4], 33.4 µM; in test [5], 63.1 µM; in test [6], 41.9 µM. For the same compound, the TGI was 9.75 µM in test [7], 23.6 µM in test [8], 83.9 µM in [9] and greater than 93.9 µM in test [10].
